From US6682892B2, “Method for treating herpes viruses” (priority 2000, dated 2004)

Tests used:
HSV-1 F = test: Plaque reduction assay, HSV-1 F; type: cell-based; conditions: Table 1, plaque reduction, Vero cells
Experimental: Antiviral activity of compounds against herpesviruses such as HSV-1, HSV-2, or HCMV can be measured using plaque reduction assays. 0.1 ml of media containing approximately 50 PFU of virus is added to each well of a 24-well cell culture dish containing a confluent monolayer of cells (Vero cells for HSV-1 and HSV-2, HFF cells for HCMV). Compounds are dissolved in 100% DMSO and diluted in 100% DMSO as 200× stocks of the desired final drug concentration. Typically 5-6 two-fold dilutions are prepared for each compound. Dilutions of compounds are then added to media containing 0.8% CMC resulting in a final 1× drug concentration. After the virus-infected cells have incubated for 1 h at 37° C., the virus innoculum is removed and 1 ml of media containing 0.8% CMC and the various concentrations of compound is added to each well of the dish. The dish is incubated at 37° C. for approximately 2-3 days (HSV-1 and HSV-2) or 6-9 days (HCMV) to allow sufficient growth of virus to form plaques in the cell monolayer. Plaques can be observed and counted microscopically or by staining the cells with 0.1% crystal violet in 20% ethanol. […] Antiviral activity of a compound is expressed as the concentration of compound predicted to reduce the number of plaques in a well by 50% (IC50). The IC50 values are calculated by plotting the per cent inhibition vs. concentration of compound using EXCEL software for linear regression.
A panel of viruses consisting of four strains of HSV-1 (KOS, F, DJL, Patton) and three strains of HSV-2 (MS, 35D, 186) are tested in a plaque reduction assay against four different 4-oxo-DHQ compounds (#1, 2, 4, 5 as shown in FIG. 1), and one 4-oxo-DHTP compound (#3 as shown in FIG. 1) and against Acyclovir. The six drugs inhibited replication of the seven virus strains with IC50 values ranging from 2-10 μM (Table 1). In order to select for 4-oxo-DHQ resistant mutants, HSV-1 strains KOS, F, and DJL along with HSV-2 strains 186 and MS are serially passaged in the presence of 20 uM compound 1. Following the seventh passage, 4-oxo-DHQ resistant virus from each strain are plaque purified three times and high-titer stocks are made.

HCMV V823A polymerase = target: T1, HCMV V823A polymerase (Human cytomegalovirus, UniProt P08546, V823A); test: In vitro polymerase assay, mutant HCMV polymerase V823A; type: biochemical
T1 construct: made in house
T1 sequence (P08546 1-1242 V823A): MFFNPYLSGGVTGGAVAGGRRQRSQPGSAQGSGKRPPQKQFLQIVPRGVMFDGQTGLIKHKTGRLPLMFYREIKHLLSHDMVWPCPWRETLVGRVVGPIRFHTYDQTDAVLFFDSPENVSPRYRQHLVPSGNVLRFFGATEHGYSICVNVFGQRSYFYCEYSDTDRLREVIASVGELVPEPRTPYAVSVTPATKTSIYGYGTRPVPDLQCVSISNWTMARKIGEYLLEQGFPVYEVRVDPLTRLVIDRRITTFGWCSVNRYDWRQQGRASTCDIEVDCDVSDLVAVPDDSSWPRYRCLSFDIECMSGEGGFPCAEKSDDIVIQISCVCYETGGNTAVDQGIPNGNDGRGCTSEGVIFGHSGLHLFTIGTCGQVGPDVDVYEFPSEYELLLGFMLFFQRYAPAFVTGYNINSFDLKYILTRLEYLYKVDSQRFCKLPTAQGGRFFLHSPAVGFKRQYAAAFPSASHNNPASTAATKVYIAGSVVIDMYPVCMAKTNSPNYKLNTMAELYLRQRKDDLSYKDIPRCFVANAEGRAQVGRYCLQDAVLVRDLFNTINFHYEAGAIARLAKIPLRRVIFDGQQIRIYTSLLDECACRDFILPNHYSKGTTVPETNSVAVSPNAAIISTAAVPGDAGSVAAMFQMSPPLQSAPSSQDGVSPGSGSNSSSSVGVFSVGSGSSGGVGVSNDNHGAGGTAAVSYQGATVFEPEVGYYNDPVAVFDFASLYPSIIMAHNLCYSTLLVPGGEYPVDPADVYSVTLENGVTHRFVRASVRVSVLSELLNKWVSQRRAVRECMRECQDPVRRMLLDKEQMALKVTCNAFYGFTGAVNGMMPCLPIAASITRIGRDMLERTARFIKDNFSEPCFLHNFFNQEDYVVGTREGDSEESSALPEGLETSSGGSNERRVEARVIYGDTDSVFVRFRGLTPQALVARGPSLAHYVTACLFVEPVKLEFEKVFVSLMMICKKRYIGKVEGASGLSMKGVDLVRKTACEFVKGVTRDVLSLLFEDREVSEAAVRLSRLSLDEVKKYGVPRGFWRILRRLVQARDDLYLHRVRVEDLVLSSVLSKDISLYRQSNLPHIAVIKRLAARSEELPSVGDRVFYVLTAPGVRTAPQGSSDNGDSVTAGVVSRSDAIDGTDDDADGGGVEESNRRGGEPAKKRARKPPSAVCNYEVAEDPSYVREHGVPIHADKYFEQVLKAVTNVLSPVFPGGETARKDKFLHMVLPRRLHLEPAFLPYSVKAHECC
Experimental: In order to select for a 4-oxo-DHQ HCMV resistant mutant, virus (strain AD169) is serially passaged in the presence of 20 uM a 4-oxo-DHQ. […] In order to determine if both valines need to be changed in order to confer resistance to the 4-oxo-DHQ's, in vitro polymerase assays are done using mutant HCMV polymerases containing either V823A or V823A plus V824L (Table 3).

Q: With Cn1cc(C(=O)NCc2ccc(Cl)cc2)c(=O)c2cc(/C=C\CO)cc(F)c21 [Compound 1] as the molecule, how does the IC50 (HSV-1 F) read?
A: Its IC50 is 2.5 µM.

Q: What about the IC50 (HCMV V823A polymerase; Table 3) of the same molecule?
A: The IC50 was 17.2 µM.

Q: What about the “increase in resistance, HCMV V823A polymerase” value (HCMV V823A polymerase; relative to wild type polymerase) of the same molecule?
A: Its value is “*Generation of the valine to alanine at amino acid 823 of HCMV results in a 3.5-fold increase in resistance”.
